Source: US10350189B2, “Method for transnasal delivery of blood-brain barrier permeation agent and therapeutic agent” (priority 2015, dated 2019)
“Also recorded” adds a separate entry of the source.

Legend:
[1] = cited from earlier work
[2] = test system: Male Sprague-Dawley rats; assay: Heart rate after intranasal application to the SPG; assay type: in vivo, rat
Procedure: (§1) Male Sprague-Dawley rats (Harlan, Indianapolis, Ind.) weighing 300-350 g were allowed to acclimate for at least 4 days prior to experimentation. Rats were housed 2 per cage in a room with controlled light (6:00 a.m. to 6:00 p.m.), humidity (50±10%) and temperature (23±1° C.). Animal care and use for experimental procedures was approved by and in accordance with the guidelines of the Midwestern University Institutional Animal Care and Use Committee (IACUC).
(§2) All drugs/solutions were freshly prepared on the day of administration using sterile saline (0.9% NaCl, Hospira, Inc., Lake Forest, Ill.). Urethane (ethyl carbamate, Sigma-Aldrich, St. Louis, Mo.) was administered intraperitoneally (IP) at a dose of 1.5 g/kg. […] Evans blue (5 mL/kg) was administered intravenously (IV) via left femoral vein cannula.
(§3) Two studies were designed for this project, using a total of 42 rats.
(§4) Rats were anesthetized with urethane (1.5 g/kg, IP) and immobilized on a surgical board equipped with a controlled heating pad. Core temperature, measured via rectal probe, was maintained at 37±1° C. In order to maintain blood pO2, pCO2 and pH, and to avoid the effect of respiration on blood pressure (BP) and heart rate (HR), animals were kept on artificial respiration via an endotracheal cannula connected to a rodent ventilator (Model 683, Harvard Apparatus, Inc., Holliston, Mass.). […]

[3] = test system: Male Sprague-Dawley rats; assay: Mean arterial pressure after intranasal application to the SPG; assay type: in vivo, rat
Procedure: as §1, §2, §3, §4

[4] = test system: BBB of the rat test subjects; assay: BBB permeability by Evans Blue concentration in brain after intranasal topical application to the SPG; assay type: in vivo
From the text: Data are presented as mean±SEM. […] A P value of less than 0.05 was considered significant.

[5] = test system: Male Sprague-Dawley rats; assay: Cerebral blood flow by Laser Speckle Contrast Analysis after intranasal application to the SPG; assay type: in vivo, rat; settings: rivastigmine-treated (1 and 2 mg/kg) vs saline
Procedure: as §3
Animals anesthetized with urethane were secured into a stereotactic apparatus (David Kopf Instruments, Tujunga, Calif.) and a midline incision was made on their scalp. The skull was slowly thinned using a dremel, working in 30 second periods to minimize heat caused by friction. Cerebral blood flow was measured using Laser Speckle Contrast Analysis (LASCA) technology with a PeriCam PSI HR system (Perimed, Inc., Ardmore, Pa.), captured in real time and analyzed using PIMSoft software (Perimed).
GraphPad Instat 2.00 was used to conduct a power analysis. […] Data are presented as mean±SEM. The significance of differences for mean arterial pressure, heart rate and cerebral blood flow was estimated by 2-way analysis of variance followed by Tukey's post hoc test. One-way analysis of variance followed by Tukey's post hoc test was used to estimate significance for BBB permeability. A P value of less than 0.05 was considered significant. The statistical analysis was processed with GraphPad Prism 6.05 (GraphPad, San Diego, Calif.).

[6] = 1, 2 or 4 mg/kg to the SPG via intranasal cannula

In the case of `C/C=C1\[C@H]2C=C(C)C[C@]1(N)c1ccc(=O)[nH]c1C2` [huperzine], the solubility in water [1] is given as “about 0.188 mg/mL”.

With `CN(C)C(=O)Oc1cccc([N+](C)(C)C)c1` [neostigmine] the heart rate ([2]; 0.4 mg/kg, over time) was “slight decrease in heart rate” and the mean arterial pressure ([3]; 0.4 mg/kg, at 15 and 30 min postadministration) was “slight decrease in mean arterial pressure”.

For `COc1ccc2c3c1O[C@H]1C[C@@H](O)C=C[C@@]31CCN(C)C2` [galantamine], the solubility in water [1] is given as “about 10 mg/mL”.

In the case of `CNC(=O)Oc1ccc2c(c1)[C@]1(C)CCN(C)[C@@H]1N2C` [physostigmine], the solubility in water [1] is given as “about 7.76 mg/mL”.

For `CCN(C)C(=O)Oc1cccc([C@H](C)N(C)C)c1` [rivastigmine], the solubility in water [1] is given as “about 2.04 mg/mL”, the heart rate [2, 6] is given as “did not significantly vary” and the “BBB permeability, in words” value ([4]; 1 mg/kg compared with saline, 2 and 4 mg/kg) is given as “significantly higher than saline; also recorded: greatest permeabilization”. The “BBB permeability, in words” value ([4]; Study I, 2 mg/kg rivastigmine compared with 0.4 mg/kg neostigmine) was “slightly increased permeability of the BBB over neostigmine”, the “BBB permeability, in words (Evans Blue dye in the CNS)” value ([4]; topical administration to the SPG, overall conclusion) was “increase in BBB permeability” and the mean arterial pressure [3, 6] was “did not significantly alter”. For the same molecule, the cerebral blood flow [5] was “No significant differences”.
